Source: patent publication US8986701B2, “Enzyme prodrug cancer therapy selectively targeted to tumor vasculature and methods of production and use thereof” (The Board of Regents of the University of Oklahoma, priority 2003, dated 2015)

Tests used:
[1] = system: MCF-7 breast cancer cells; test: In vitro enzyme prodrug cytotoxicity (Alamar Blue), MCF-7; assay type: cell-based, human
Procedure: (§1) In Vitro Enyzme Prodrug Cytotoxicty to Cells: The experiment lasted 3 days, using the same cells for each of the days (day 0, 1, 2, and 3). Cells were grown and plated in 24-well plates with respective growth media using the same procedure as for the FP binding assay (see above). […] On day 0, a saturating concentration of FP was diluted in medium was added and incubated for 2 hours at 37° C. The plates were washed, and medium containing SeMet varying from 0 to 500 μM was added. The Alamar Blue assay was performed on all wells on day 0. […] The solution was transferred to an opaque 96-well plate, and the fluorescence was read at 590 nm using excitation at 530 nm. The blank consisted of wells containing only medium (no cells). After the fluorescence reading, the plates were washed, replaced with fresh medium, and then placed in incubator. The readings were taken every 24 hours for the duration of the experiment. […] The ability of the enzyme prodrug system to eliminate human endothelial cells and breast cancer cells was evaluated using cells grown in vitro and plated on 24-well plates. […] Each of the cell lines in question metabolized the Alamar Blue to produce a fluorescence that was measured to quantify total cell viability. For each day, the fluorescence data from the Alamar Blue assay was expressed as a percentage of the fluorescence for the cells with no FP and 0 μM SeMet (control). […]

[2] = system: HAAE-1 endothelial cells; test: In vitro enzyme prodrug cytotoxicity (Alamar Blue), endothelial cells; assay type: cell-based, human; conditions: with saturating FP; 10 and 100 μM SeMet; days 2 and 3; 500 μM L-methionine
Procedure: as §1

[3] = system: MDA-MB-231 breast cancer cells; test: In vitro enzyme prodrug cytotoxicity (Alamar Blue), MDA-MB-231; assay type: cell-based, human; conditions: 500 μM L-methionine
Procedure: as §1

[4] = Storage stability of L-methioninase activity in lyophilized form; assay type: physicochemical; conditions: lyophilized form at −80° C.
[5] = system: PS exposed on MCF-7 breast cancer cells; test: Fusion protein equilibrium binding assay, MCF-7; design: species or system human; conditions: specific binding, biotin-labeled FP, no H2O2, read-out: dissociation constant (Kd)
Procedure: (§2) Fusion Protein Binding Assay: Endothelial cells were grown to 70-80% confluence in T-75 flasks. Cells were transferred to 24-well culture plates (5×10^4 cells/well) and grown to 80-85% confluence. Cells were fixed to the plate using 0.25% glutaraldehyde in binding buffer (PBS with 2 mM Ca^2+). Excess aldehyde groups were quenched using 50 mM NH4Cl in binding buffer. Varying concentrations of biotinylated FP were diluted in binding buffer containing 0.5% BSA and incubated at 37° C. for 2 hours. After washing with binding buffer with 0.5% BSA, streptavidin-HRP was added at 2 μg/ml and incubated at room temperature for 1 hour. Following washing with binding buffer, HRP was measured by adding the chromogenic substrate O-phenylenediamine (0.4 mg/ml) and hydrogen peroxide (0.012%) in phosphate-citrate buffer. After 30 minutes at room temperature in the dark, the solution was transferred to a transparent 96-well plate, and the absorbance was read at 450 nm on a microtiter plate reader. […] To determine non-specific binding, the same procedure was performed with no Ca^2+ and 5 mM EDTA in the binding buffer. […]
(§3) Binding of Fusion Protein: The ability of the Meth-AnnV FP to bind to human endothelial cells and breast cancer cells with PS exposed on the cell surface was evaluated by equilibrium binding experiments in which increasing concentrations of biotin-labeled FP were used. […]

[6] = system: MCF-7 cells; test: Binding stability assay, MCF-7; assay type: cell-based, human
Procedure: (§4) Binding Stability Assay: To assess how long the FP remains bound to the surface of the endothelial cells, a modified binding assay was used. Cells on 24-well plates were first incubated for 2 hours at 37° C. in a saturating concentration of biotinylated FP (50 nM) in complete growth medium with 2 mM Ca^2+. Then, the cells were fixed either at day 0, 1, 2 or 3 with 0.25% glutaraldehyde in binding buffer. Excess aldehyde groups were quenched by incubation in a 50 mM NH4Cl in binding buffer. The binding of FP was then quantitated using the same procedure used in the FP binding assay (see above).
(§5) Binding Stability: To assess how long the FP remains bound to the surface of the endothelial cells, a modified binding assay was used. Cells on 24-well plates were first incubated for 2 hours at 37° C. in a saturating concentration of biotinylated FP (50 nM) in complete growth medium with 2 mM Ca^2+. […] The binding of FP was then quantified using the same procedure used in the equilibrium FP binding assay. […] For each cell line, the slope by linear regression of the absorbance/RFU versus time data was obtained, with results as follows: 3.07×10^−5 per day for the endothelial cells (HAAE-1), 4.63×10^−5 per day for the MCF-7 cells, and 5.38×10^−5 per day for the MDA-MB-231 cells. Thus, the rate of change of absorbance/RFU was the lowest for the endothelial cells.

[7] = system: PS exposed on HAAE-1 aorta endothelial cells; test: Fusion protein equilibrium binding assay, endothelial cells; design: species or system human; conditions: specific binding (total minus non-specific without Ca2+), biotin-labeled FP, no H2O2, read-out: dissociation constant (Kd)
Procedure: as §2, §3

[8] = L-methioninase enzyme activity with L-methionine as substrate; assay type: biochemical
Procedure: Protein Content and Enzymatic Activity Determination: The Bradford assay from Bio-Rad (Hercules, Calif.) was used for all protein determinations throughout the purification using bovine serum albumin (BSA) as the standard. Samples were analyzed by denaturing gel electrophoresis using the SDS-PAGE method with Coomassie blue staining (Laemmli, 1970).

[9] = system: MDA-MB-231 cells; test: Binding stability assay, MDA-MB-231; assay type: cell-based, human
Procedure: as §4, §5

[10] = system: HAAE-1 endothelial cells; test: Binding stability assay, endothelial cells; assay type: cell-based, human
Procedure: as §4, §5

[11] = system: PS exposed on MDA-MB-231 breast cancer cells; test: Fusion protein equilibrium binding assay, MDA-MB-231; design: species or system human; conditions: specific binding, biotin-labeled FP, no H2O2, read-out: dissociation constant (Kd)
Procedure: as §2, §3

[12] = L-methioninase from P. putida; Esaki and Soda 1987; cited from earlier work
[13] = system: human brain tumor xenografts; conditions: cited from earlier work
[14] = system: endothelial cells; conditions: van Heerde et al., 1994a and b; read-out: Kd, literature values of annexin V binding alone to endothelial cells; cited from earlier work
[15] = period of the experiment 3 days
[16] = 50 nM biotinylated FP, days 0-3, 500 μM L-methionine

C[Se]CC[C@H](N)C(=O)O [SeMet, selenomethionine]
cell viability vs control, SeMet by itself ([1]; no FP, 500 μM SeMet, day 3, p<0.05): significantly lower | cell killing (cell viability, Alamar Blue) vs same SeMet without FP ([1]; with saturating FP, day 2 with 500 μM SeMet, day 3 with 100 and 500 μM SeMet, 2000 μM L-methionine): significant cell killing | cell killing (cell viability, Alamar Blue) vs same SeMet without FP [2]: Significant cell killing | cell killing (cell viability, Alamar Blue) vs same SeMet without FP ([3]; with saturating FP, 10 and 500 μM SeMet, days 1, 2 and 3): significant killing

FP: Fusion protein of Pseudomonas putida L-methioninase linked by a flexible linker to human annexin V, SEQ ID NO:2
L-methioninase activity on storage [4]: remained relatively constant | Kd [5]: 1.9 ± 1.2 nM | slope by linear regression of absorbance/RFU versus time ([6]; 50 nM biotinylated FP, days 0-3, 2000 μM L-methionine): 4.63×10^−5 per day | duration FP stays bound to the cells [6, 15]: at least 3 days | Kd [7]: 1.7 ± 0.6 nM | methioninase specific activity ([8]; lyophilized FP): 1.0 U/mg of protein | Specific activity ([8]; purification step: After lyophilized): 1.04 U/mg | slope by linear regression of absorbance/RFU versus time [9, 16]: 5.38×10^−5 per day | duration FP stays bound to the cells [9, 15]: at least 3 days | slope by linear regression of absorbance/RFU versus time [10, 16]: 3.07×10^−5 per day | duration FP stays bound to the cells [10, 15]: at least 3 days | Kd [11]: 2.2 ± 1.2 nM | cell viability when FP added, no SeMet present ([3]; no SeMet): significant decrease in cell viability

L-methionine-α-deamino-γ-mercaptomethane-lyase [L-methioninase]
relative reactivity for DL-selenomethionine substrate versus L-methionine substrate [12]: 2.8 times | tumor regression, share of animals ([13]; after a 10-day period, same combined treatment): one-third | tumor stasis, share of treated animals ([13]; within four days, 44 mg/kg per day i.p. with homocystine and diet restricted in methionine, homocysteine, choline): 100%

annexin V: Ca2+-dependent anionic phospholipid binding protein; literature comparator for binding
Kd [14]: 2.7 to 15.5 nM
